Values of other authors as cited in US5962660A, “Sialyl Lewis X mimetics incorporating fucopeptides” (The Scripps Research Institute, priority 1997, dated 1999).

What was measured:
[1] = because of glycosidase reactions
[2] = for lung injury / tissue accumulation of neutrophils: intravenous infusion of up to 200 μg, rats given intravenous cobra venom

For NeuAcα2→3Galβ1→4(Fucα1→3)GlcNAc [SLe^x], the “stability in the blood stream” value [1] is listed as “unstable”, the “affinity for E-selectin in vitro” value (E-selectin) is listed as “relatively weak” and the effective intravenous concentration ([2]; calculated from the 200 μg used) is listed as “less than 1 μM”. The lung injury [2] was “dramatically reduced”, the “tissue accumulation of neutrophils” value [2] was “diminished” and the IC50 ([2]; rats, read-out: IC50 value in vivo for protecting against lung injury) was about 1 µM.
For “NeuAcα2→3Galβ1→4(Fucα1→3)GlcNAcβ1,3Galβ- [pentamer]”, the lung injury [2] is given as “dramatically reduced” and the “tissue accumulation of neutrophils” value [2] is given as “diminished”.
